Measurements: US5534533A, “Carboxylate derivatives exhibiting phospholipase A2 inhibitory activity” (Shionogi & Co., Ltd., priority 1993, dated 1996)
pIC50: −log10 of the molar value.

What was measured:
[1] = target: T1, intracellular PLA2 (cytosolic PLA2, cPLA2) (Homo sapiens, UniProt P47712); experiment: Intracellular PLA2 (cPLA2) inhibitory activity (14C-arachidonyl phosphatidylcholine substrate); assay type: biochemical; settings: 2 μM radiolabelled phosphatidylcholine, 1 μM dioleoylglycerol, 1 mM CaCl2, pH 7.4; read-out: c-PLA2 Inhibition IC50
T1 sequence (P47712 1-749): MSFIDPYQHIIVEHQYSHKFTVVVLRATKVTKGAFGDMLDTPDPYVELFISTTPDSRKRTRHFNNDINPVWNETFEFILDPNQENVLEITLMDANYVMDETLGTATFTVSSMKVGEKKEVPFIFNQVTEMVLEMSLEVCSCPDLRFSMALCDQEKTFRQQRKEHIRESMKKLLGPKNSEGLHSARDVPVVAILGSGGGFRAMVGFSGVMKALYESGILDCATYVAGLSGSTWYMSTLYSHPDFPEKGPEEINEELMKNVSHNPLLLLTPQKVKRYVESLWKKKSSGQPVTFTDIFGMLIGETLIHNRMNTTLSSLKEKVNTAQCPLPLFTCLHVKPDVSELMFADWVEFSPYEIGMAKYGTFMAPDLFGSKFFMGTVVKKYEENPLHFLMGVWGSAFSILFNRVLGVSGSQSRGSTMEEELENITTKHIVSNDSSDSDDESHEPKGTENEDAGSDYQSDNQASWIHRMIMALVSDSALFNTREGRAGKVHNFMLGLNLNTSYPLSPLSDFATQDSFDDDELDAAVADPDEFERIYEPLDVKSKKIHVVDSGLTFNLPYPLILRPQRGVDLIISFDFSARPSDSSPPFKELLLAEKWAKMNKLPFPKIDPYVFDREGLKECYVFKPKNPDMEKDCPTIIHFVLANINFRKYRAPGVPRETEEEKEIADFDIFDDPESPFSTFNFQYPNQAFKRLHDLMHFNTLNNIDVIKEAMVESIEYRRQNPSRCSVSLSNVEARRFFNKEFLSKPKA
Experimental: cPLA2 activity was assayed according to the method described in R. M. Kramer, E. F. Roberts, J. Manetta and J. E. Putnam, J. Biol. Chem., 268 (8), 5268-5272 (1991). Briefly, intracellular PLA2 activity was assayed using supersonic treated […] which contain 1-palmitoyl-2-[^14 C]arachidonyl-sn-glycero-3-phosphocholine and sn-1, 2-dioleoylglycerol at a molar ratio of 2:1. This test mixture contained 1 mM CaCl2, 2 mM dithiothreitol, 150 mM NaCl, 50 mM Hepes, pH 7.4 and 0.1 mg/ml BSA. A substrate is a 2 μM radioisotope labelled phosphatidylcholine ribosome containing 1 μM dioleoylglycerol. IC50 value is calculating in the same manner as in calculating it for secretory PLA2 inhibitory activity.

Human secretory PLA2 = target: T2, Human secretory PLA2 (Homo sapiens, UniProt P14555); experiment: Secretory PLA2 inhibitory activity (diheptanoyl thio PC substrate, absorbance at 405 nm); assay type: biochemical; settings: diheptanoyl thio PC 1 mM, Triton X100 0.3 mM, pH 7.3, CaCl2 10 mM, 30 minutes, read-out: s-PLA2 Inhibition IC50
T2 sequence (P14555 21-144): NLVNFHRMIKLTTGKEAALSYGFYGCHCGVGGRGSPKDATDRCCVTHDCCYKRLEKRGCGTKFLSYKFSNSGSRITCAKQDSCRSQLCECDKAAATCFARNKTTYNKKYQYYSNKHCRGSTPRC
Experimental: Secretory PLA2 activity was assayed according to the method described in Penynolds L. J., Hughes L. L., Dennis E. A. et al. Anal. Biochem. 201,190-197 (1992).
Diheptanoyl thiophosphatidylcholine which was prepared according to the procedure described in the literature was used as a substrate. Human secretory PLA2 was used as an enzyme. The diheptanoyl thio PC (1 mM) was reacted with the human secretory PLA2 in the presence of Triton X100 (0.3 mM) and 5,5'-dithiobis-(2-nitrobenzoic acid) (125 μM) in Tris buffer (25 mM, pH 7.3), CaCl2 (10 mM), KCI (100 mM), bovine serum albumin (1.0 mg/ml), and then the change in absorbance at 405 nm at the time of 30 minutes after the reaction was assayed.
Inhibitory activity (%) was estimated by the formula: [(the change in absorbance with the inhibitor and PLA2 ·the change in absorbance with the inhibitor and without PLA2)/(the change in absorbance without the inhibitor and with PLA2 ·the change in absorbance without the inhibitor and PLA2)]×100.
IC50 value (μM) was calculated from graph showing inhibitory values on the vertical axis and log of concentrations of the inhibitor on the horizontal axis.

Structure (SMILES) | pIC50 [1] | pIC50 (Human secretory PLA2)
COc1c(C)c(OC(=O)c2c(C)c(C)c(OCCC=C(c3ccccc3)c3ccccc3)c(C)c2OC)c(C)c(C)c1C(=O)O [Example 48, 4-[4-(4,4-Diphenylbut-3-enyloxy)-2-methoxy-3,5,6-trimethylbenzoyloxy]-2-methoxy-3,5,6-trimethylbenzoic Acid] | 5.52 | 4.92
COc1c(C)c(OC(=O)c2c(C)c(C)c(OCCC(C)CCCC(C)C)c(C)c2OC)c(C)c(C)c1C(=O)O (stereo not shown) [Example 50, 4-[4-(3,7-Dimethyloctyloxy)-2-methoxy-3,5,6-trimethylbenzoyloxy]-2-methoxy-3,5,6-trimethylbenzoic Acid] | 5.52 | 4.30
COc1c(C)c(OC(=O)c2c(C)c(C)c(OCCCN(S(=O)(=O)c3ccccc3)S(=O)(=O)c3ccccc3)c(C)c2OC)c(C)c(C)c1C(=O)O [Example 51, 4-{4-[(3-Bisphenylsulfonylamino)propoxy]-2-methoxy-3,5,6-trimethylbenzoyloxy}-2-methoxy-3,5,6-trimethylbenzoic Acid] | 5.38 | 5.68
COc1c(C)c(OC(=O)c2c(C)c(C)c(OCCCN(S(C)(=O)=O)S(=O)(=O)c3ccccc3)c(C)c2OC)c(C)c(C)c1C(=O)O [Example 52] | 4.68 | 5.35
COc1c(C)c(OC(=O)c2c(C)c(C)c(OCCCN(C)S(=O)(=O)c3ccccc3)c(C)c2OC)c(C)c(C)c1C(=O)O [Example 53] | 4.70 | 5.22
COc1c(C)c(OC(=O)c2c(C)c(C)c(OCCCNS(=O)(=O)c3ccccc3)c(C)c2OC)c(C)c(C)c1C(=O)O [Example 54, 4-{4-[(3-Phenylsulfonylamino)propoxy]-2-methoxy-3,5,6-trimethylbenzoyloxy}-2-methoxy-3,5,6-trimethylbenzoic Acid] | < 4.30 | 4.77
COc1c(C)c(OC(=O)c2c(C)c(C)c(OCCCN(S(=O)(=O)c3ccc(F)cc3)S(=O)(=O)c3ccc(F)cc3)c(C)c2OC)c(C)c(C)c1C(=O)O [Example 55, 4-{4-[3-bis(4-Fluorophenyl)sulfonylaminopropoxy]-2-methoxy-3,5,6-trimethylbenzoyloxy}-2-methoxy-3,5,6-trimethylbenzoic Acid] | 5.20 | 5.17
COc1c(C)c(OC(=O)c2c(C)c(C)c(OCCCNS(=O)(=O)c3ccc(F)cc3)c(C)c2OC)c(C)c(C)c1C(=O)O [Example 56, 4-{4-[3-(4-Fluorophenyl)sulfonylaminopropoxy]-2-methoxy-3,5,6-trimethylbenzoyloxy}-2-methoxy-3,5,6 trimethylbenzoic Acid] | < 4.30 | 4.85
COc1c(C)c(OC(=O)c2c(C)c(C)c(OCCCN(S(C)(=O)=O)S(=O)(=O)c3ccc(F)cc3)c(C)c2OC)c(C)c(C)c1C(=O)O [Example 57, 4-{4-[3-Methylsulfonyl-(4-fluorophenyl)sulfonylaminopropoxy]-2-methoxy-3,5,6-trimethylbenzoyloxy}-2-methoxy-3,5,6-trimethylbenzoic Acid] | 4.80 | 5.24
COc1c(C)c(OC(=O)c2c(C)c(C)c(OCCCN(C)S(=O)(=O)c3ccc(F)cc3)c(C)c2OC)c(C)c(C)c1C(=O)O [Example 58, 4-{4-[3-Methyl-(4-fluorophenyl)sulfonylaminopropoxy]-2-methoxy-3,5,6-trimethylbenzoyloxy}-2-methoxy-3,5,6-trimethylbenzoic Acid] | 4.59 | 5.28
COc1c(C)c(OC(=O)c2c(C)c(C)c(OCCCN(C(=O)OC(C)(C)C)S(C)(=O)=O)c(C)c2OC)c(C)c(C)c1C(=O)O [Example 59, 4-[4-(3-t-Butoxycarbonylmethylsulfonylaminopropoxy)-2-methoxy-3,5,6-trimethylbenzoyloxy]-2-methoxy-3,5,6-trimethylbenzoic Acid] | < 4.30 | 4.96
COc1c(C)c(OC(=O)c2c(C)c(C)c(OCCCN(S(C)(=O)=O)S(C)(=O)=O)c(C)c2OC)c(C)c(C)c1C(=O)O [Example 60, 4-[4-(3-bis-Methylsulfonylaminopropoxy)-2-methoxy-3,5,6-trimethylbenzoyloxy]-2-methoxy-3,5,6-trimethylbenzoic Acid] | < 4.30 | 4.55
COc1c(C)c(OC(=O)c2c(C)c(C)c(OCCCNC(=O)c3ccccc3)c(C)c2OC)c(C)c(C)c1C(=O)O [Example 61, 4-[4-(3-Benzoylaminopropoxy)-2-methoxy-3,5,6-trimethylbenzoyloxy}-2-methoxy-3,5,6-trimethylbenzoic Acid] | < 4.30 | 4.48
COc1c(C)c(OC(=O)c2c(C)c(C)c(OCCCN(C(=O)c3ccccc3)C(=O)c3ccccc3)c(C)c2OC)c(C)c(C)c1C(=O)O [Example 62, 4-[4-(3-Dibenzoylaminopropoxy)-2-methoxy-3,5,6-trimethylbenzoyloxy}-2-methoxy-3,5,6-trimethylbenzoic Acid] | 5.02 | 5.42
COc1c(C)c(OC(=O)c2c(C)c(C)c(OCCCN(Cc3ccccc3)Cc3ccccc3)c(C)c2OC)c(C)c(C)c1C(=O)O [Example 63, 4-{4-[3-(bis-Benzylamino)propoxy]-2-methoxy-3,5,6-trimethylbenzoyloxy}-2-methoxy-3,5,6-trimethylbenzoic Acid] | 5.60 | 4.92
COc1c(C)c(OC(=O)c2c(C)c(C)c(OCCCN3C(=O)c4ccccc4C3=O)c(C)c2OC)c(C)c(C)c1C(=O)O [Example 64, 4-{4-[3-(1,3-Dioxo-1,3-dihydroisoindol-2-yl)-propoxy]-2-methoxy-3,5,6-trimethylbenzoyloxy}-2-methoxy-3,5,6-trimethylbenzoic Acid] | 4.60 | 5.19
COc1c(C)c(OC(=O)c2c(C)c(C)c(OCCCN3C(=O)c4ccccc4S3(=O)=O)c(C)c2OC)c(C)c(C)c1C(=O)O [Example 65, 4-{4-[3-(1, 1 -Dihydroxy-3-oxo-3H-benzo[d]-isothiazole-2-yl)propoxy]-2-methoxy-3,5,6-trimethylbenzoyloxy}-2-methoxy-3,5,6-trimethylbenzoic Acid] | 4.68 | 5.17
COc1c(C)c(OC(=O)c2c(C)c(C)c(OCCCN3CCC(=C(c4ccccc4)c4ccccc4)CC3)c(C)c2OC)c(C)c(C)c1C(=O)O [Example 66, 4-{4-[3-(4-Benzhydrylidenepiperidin-1-yl)-propoxy]-2-methoxy-3,5,6-trimethylbenzoyloxy}-2-methoxy-3,5,6-trimethylbenzoic Acid] | 5.17 | 4.74
COc1c(C)c(OC(=O)c2c(C)c(C)c(OCCCN3CCN(C(c4ccccc4)c4ccccc4)CC3)c(C)c2OC)c(C)c(C)c1C(=O)O [Example 67, 4-{4-[3-(Di-Phenylmethylpiperazin-1-yl)propoxy]-2-methoxy-3,5,6-trimethylbenzoyloxy}-2-methoxy-3,5,6-trimethylbenzoic Acid] | 5.29 | 4.77
COc1c(C)c(OC(=O)c2c(C)c(C)c(OCCCN3CCN(C(c4ccc(F)cc4)c4ccc(F)cc4)CC3)c(C)c2OC)c(C)c(C)c1C(=O)O [Example 68, 4-{4-[3-(Di-4-Fluorophenylmethylpiperazin-1-yl)-propoxy]-2-methoxy-3,5,6-trimethylbenzoyloxy}-2-methoxy-3,5,6-trimethylbenzoic Acid] | 4.96 | 4.77
